In patent publication US6806077B1 (priority 1997, dated 2004):
Like-named read-outs stand apart in the source and are kept apart here.

What was measured:
PrPres [1] = format: in vivo; settings: C57BL/6 mice inoculated i.p. with strain C506M3; AmB 1 mg/kg from tA+15 days; sacrificed at tA+21 or tA+28; Western blot, versus untreated animals
PrPres [2] = test system: PrPres; design: species or system C57BL/6 mice; settings: mouse, in vivo, ip, 25 mg/kg

Row | Molecule | inhibition of the accumulation of PrPres in the spleen (PrPres [1]) | inhibition of the accumulation of PrPres in the spleen (PrPres [2])
1 | C[C@@H]1[C@H](O)[C@@H](C)/C=C/C=C/C=C/C=C/C=C/C=C/C=C/[C@H](O[C@@H]2O[C@H](C)[C@@H](O)[C@H](N)[C@@H]2O)C[C@@H]2O[C@](O)(C[C@@H](O)C[C@@H](O)[C@H](O)CC[C@@H](O)C[C@@H](O)CC(=O)O[C@H]1C)C[C@H](O)[C@H]2C(=O)O [AmB, amphotericin B] | significant inhibition of the accumulation of PrPres | 
2 | dextran sulphate [DS500] |  | significant inhibition of the accumulation of PrPres
